The values that follow come from publication PMC6943437, “Coupling the Antimalarial Cell Penetrating Peptide TP10 to Classical Antimalarial Drugs Primaquine and Chloroquine Produces Strongly Hemolytic Conjugates” (Molecules, 2019).

Where “and” joins values, the source holds several entries; their conditions need not be identical. Equal entries are not always repeated. *1 amine or outer side, *2 acyl side, *3 side chain or, on linkers, in order; H or OH if unused. Where a SMILES comes first, the peptide text is derived from it. Where no end group is shown, it is not given here. The star is where a group is joined. NH(CH2)4NH(7-Cl-4-quinolyl) = Clc1ccc2c(NCCCCN*)ccnc2c1; Suc = O=C(CCC(=O)[*:2])[*:1]

For orientation: IC50 means the concentration that gives 50% inhibition. Read a high IC50 as lower potency.

The test system of the first data set is P. falciparum W2.
Test: not given
The class given is cell-based. The settings on record: P. falciparum W2 (CQ-resistant), 48 h, n = 3. As to the method: All conjugates and their respective parent CPP (Table 1), were screened in vitro for their antiplasmodial activity, using the CQ-resistant P. falciparum W2 strain. The primaquine analogue to 5a, i.e., conjugate 3 where the CPP is TP10, PQ-C4-TP10 (3a), was also included in the study for comparison.
Synchronized ring-stage P. falciparum parasites (W2 strain) were incubated with test compounds for 48 h in Roswell Park Memorial Institute (RPMI) 1640 medium containing 10% human serum or 0.5% Albumax serum substitute. Parasites were then fixed with 1% formaldehyde in phosphate-buffered saline (PBS), pH 7.4, for […] at RT and labeled with YOYO-1 (1 nM; molecular probes) in 0.1% Triton X-100 in PBS. Parasitemias were determined by flow cytometry, from dot plots (forward scatter versus fluorescence). For 50% inhibitory concentration (IC50) determinations, dose-response studies were performed, with the values normalized to percent control activity, and IC50s were calculated using GraphPad Prism, with data fitted by nonlinear regression.
For `N=C(N)NCCC[C@H](NC(=O)[C@H](CCCNC(=N)N)NC(=O)[C@H](CCCNC(=N)N)NC(=O)[C@H](CCCNC(=N)N)NC(=O)[C@H](CCCNC(=N)N)NC(=O)[C@H](CCCNC(=N)N)NC(=O)[C@H](CCCNC(=N)N)NC(=O)[C@H](CCCNC(=N)N)NC(=O)[C@H](CCCNC(=N)N)NC(=O)CCC(=O)NCCCCNc1ccnc2cc(Cl)ccc12)C(N)=O` [5h], the concentration for half-maximal inhibition (IC50) is above 10 µM.

The molecule `CC[C@H](C)[C@H](NC(=O)[C@H](CC(C)C)NC(=O)[C@H](CCCNC(=N)N)NC(=O)[C@H](CCCCN)NC(=O)[C@H](CCC(N)=O)NC(=O)[C@H](CCCNC(=N)N)NC(=O)[C@@H](NC(=O)[C@H](CC(C)C)NC(=O)[C@H](CCCNC(=N)N)NC(=O)[C@H](CCCCN)NC(=O)[C@H](CCC(N)=O)NC(=O)[C@H](CCCNC(=N)N)NC(=O)[C@@H](NC(=O)[C@H](CC(C)C)NC(=O)[C@H](CCCNC(=N)N)NC(=O)[C@H](CCCCN)NC(=O)[C@H](CCC(N)=O)NC(=O)[C@H](CCCNC(=N)N)NC(=O)CCC(=O)NCCCCNc1ccnc2cc(Cl)ccc12)[C@@H](C)CC)[C@@H](C)CC)C(N)=O` [5d] ({NH(CH2)4NH(7-Cl-4-quinolyl)-Suc}-RQKRLIRQKRLIRQKRLI-NH2) yielded an IC50 above 10 µM.

Molecule `N=C(N)NCCC[C@H](NC(=O)[C@H](CCCNC(=N)N)NC(=O)[C@H](CCCNC(=N)N)NC(=O)[C@H](CCCNC(=N)N)NC(=O)[C@H](CCCNC(=N)N)NC(=O)[C@H](CCCNC(=N)N)NC(=O)[C@H](CCCNC(=N)N)NC(=O)[C@H](CCCNC(=N)N)NC(=O)[C@@H](N)CCCNC(=N)N)C(N)=O` [R9] came in with a 50% inhibitory concentration (IC50) above 10 µM.

Take VRLIVAVRIWRR-NH2 [IDR-1018]: the IC50 is above 10 µM.

The molecule `CC[C@H](C)[C@H](NC(=O)[C@H](CCCCN)NC(=O)[C@@H](NC(=O)[C@H](CCC(=O)O)NC(=O)[C@H](CCCNC(=N)N)NC(=O)[C@H](CCCCN)NC(=O)[C@@H](NC(=O)[C@H](CCCCN)NC(=O)[C@H](CCCCN)NC(=O)[C@H](CCCCN)NC(=O)[C@H](CCCCN)NC(=O)[C@@H](NC(=O)CCC(=O)NCCCCNc1ccnc2cc(Cl)ccc12)C(C)C)[C@@H](C)CC)[C@@H](C)CC)C(N)=O` [5c] ({NH(CH2)4NH(7-Cl-4-quinolyl)-Suc}-VKKKKIKREIKI-NH2) gave an IC50 above 10 µM.

With `CC[C@H](C)[C@H](NC(=O)[C@H](CCCCN)NC(=O)[C@H](CCCCN)NC(=O)[C@H](C)NC(=O)[C@H](CC(C)C)NC(=O)[C@H](C)NC(=O)[C@H](C)NC(=O)[C@H](CC(C)C)NC(=O)[C@H](C)NC(=O)[C@H](CCCCN)NC(=O)[C@H](CC(C)C)NC(=O)[C@H](CC(N)=O)NC(=O)[C@@H](NC(=O)[C@H](CCCCN)NC(=O)CNC(=O)[C@H](CC(C)C)NC(=O)[C@H](CC(C)C)NC(=O)[C@H](Cc1ccc(O)cc1)NC(=O)CNC(=O)[C@H](C)NC(=O)[C@H](CO)NC(=O)[C@H](CC(N)=O)NC(=O)[C@H](CC(C)C)NC(=O)[C@@H](NC(=O)[C@H](Cc1c[nH]c2ccccc12)NC(=O)CN)[C@@H](C)O)[C@@H](C)CC)C(=O)N[C@@H](CC(C)C)C(N)=O` [Transportan], the IC50 is 3.05 µM and 3.1 µM.

For the molecule `CC[C@H](C)[C@H](NC(=O)[C@H](CCCNC(=N)N)NC(=O)[C@@H](NC(=O)[C@H](C)NC(=O)[C@@H](NC(=O)[C@@H](NC(=O)[C@H](CC(C)C)NC(=O)[C@H](CCCNC(=N)N)NC(=O)[C@@H](NC(=O)CCC(=O)NCCCCNc1ccnc2cc(Cl)ccc12)C(C)C)[C@@H](C)CC)C(C)C)C(C)C)C(=O)N[C@@H](Cc1c[nH]c2ccccc12)C(=O)N[C@@H](CCCNC(=N)N)C(=O)N[C@@H](CCCNC(=N)N)C(N)=O` [5e] ({NH(CH2)4NH(7-Cl-4-quinolyl)-Suc}-VRLIVAVRIWRR-NH2), the IC50 was above 10 µM.

Tested on in another data set: not listed separately
The data set can be described thus: In vitro hemolytic activity on healthy erythrocytes. Format: cell-based. Particulars: healthy erythrocytes (hRBC); 10 µM, 1 h, hRBC only; dash with footnote c = hemolysis not detected; read-out: % hemolysis at 10 µM ± SD (n = 3), hRBC. As to the method: (§1) For positive and negative controls, 1% Triton X-100 and PBS were added, respectively. After this period, the plates were centrifuged and supernatants transferred to another plate. Supernatant absorbance at 450 nm was assessed in a multi-mode microplate reader (Triad, Dynex Technologies, Chantilly, VA, USA) and values were treated using the following equation (1):(1) % Hemolysis=Abs−Abs(negative control)/Abs(positive control)−Abs(negative control)
Turning to `CC[C@H](C)[C@H](NC(=O)[C@H](CCCCN)NC(=O)[C@H](CCCCN)NC(=O)[C@H](C)NC(=O)[C@H](CC(C)C)NC(=O)[C@H](C)NC(=O)[C@H](C)NC(=O)[C@H](CC(C)C)NC(=O)[C@H](C)NC(=O)[C@H](CCCCN)NC(=O)[C@H](CC(C)C)NC(=O)[C@H](CC(N)=O)NC(=O)[C@@H](NC(=O)[C@H](CCCCN)NC(=O)CNC(=O)[C@H](CC(C)C)NC(=O)[C@H](CC(C)C)NC(=O)[C@H](Cc1ccc(O)cc1)NC(=O)CNC(=O)[C@H](C)N)[C@@H](C)CC)C(=O)N[C@@H](CC(C)C)C(=O)N[C@@H](CSSC[C@H](N)C(=O)NCCCC(C)Nc1cc(OC)cc2cccnc12)C(N)=O` (some centres unmarked) [14′], the hemolysis at 1 h, 10 µM was found to be 99.7 ± 0.4%.

With `CC[C@H](C)[C@H](NC(=O)[C@H](CCCCN)NC(=O)[C@H](CCCCN)NC(=O)[C@H](C)NC(=O)[C@H](CC(C)C)NC(=O)[C@H](C)NC(=O)[C@H](C)NC(=O)[C@H](CC(C)C)NC(=O)[C@H](C)NC(=O)[C@H](CCCCN)NC(=O)[C@H](CC(C)C)NC(=O)[C@H](CC(N)=O)NC(=O)[C@@H](NC(=O)[C@H](CCCCN)NC(=O)CNC(=O)[C@H](CC(C)C)NC(=O)[C@H](CC(C)C)NC(=O)[C@H](Cc1ccc(O)cc1)NC(=O)CNC(=O)[C@H](C)NC(=O)CCC(=O)NCCCC(C)Nc1cc(OC)cc2cccnc12)[C@@H](C)CC)C(=O)N[C@@H](CC(C)C)C(N)=O` (some centres unmarked) [3a], the hemolysis at 1 h, 10 µM is 89 ± 8%.

Tested on in the next data set: not listed separately
The data set can be described thus: In vitro hemolytic activity on Plasmodium-infected erythrocyte cultures. Format: cell-based. The settings on record: cultures with 3% PiRBC, dash with footnote c = hemolysis not detected, read-out: % hemolysis at 10 µM ± SD (n = 3), PiRBC. The procedure: as §1
Consider `CC[C@H](C)[C@H](NC(=O)[C@H](CCCCN)NC(=O)[C@H](CCCCN)NC(=O)[C@H](C)NC(=O)[C@H](CC(C)C)NC(=O)[C@H](C)NC(=O)[C@H](C)NC(=O)[C@H](CC(C)C)NC(=O)[C@H](C)NC(=O)[C@H](CCCCN)NC(=O)[C@H](CC(C)C)NC(=O)[C@H](CC(N)=O)NC(=O)[C@@H](NC(=O)[C@H](CCCCN)NC(=O)CNC(=O)[C@H](CC(C)C)NC(=O)[C@H](CC(C)C)NC(=O)[C@H](Cc1ccc(O)cc1)NC(=O)CNC(=O)[C@H](C)N)[C@@H](C)CC)C(=O)N[C@@H](CC(C)C)C(=O)N[C@@H](CSSC[C@H](N)C(=O)NCCCC(C)Nc1cc(OC)cc2cccnc12)C(N)=O` (some centres unmarked) [14′], for which the hemolysis at 1 h, 10 µM was found to be 72 ± 9%.

Consider `CC[C@H](C)[C@H](NC(=O)[C@H](CCCCN)NC(=O)[C@H](CCCCN)NC(=O)[C@H](C)NC(=O)[C@H](CC(C)C)NC(=O)[C@H](C)NC(=O)[C@H](C)NC(=O)[C@H](CC(C)C)NC(=O)[C@H](C)NC(=O)[C@H](CCCCN)NC(=O)[C@H](CC(C)C)NC(=O)[C@H](CC(N)=O)NC(=O)[C@@H](NC(=O)[C@H](CCCCN)NC(=O)CNC(=O)[C@H](CC(C)C)NC(=O)[C@H](CC(C)C)NC(=O)[C@H](Cc1ccc(O)cc1)NC(=O)CNC(=O)[C@H](C)NC(=O)CCC(=O)NCCCC(C)Nc1cc(OC)cc2cccnc12)[C@@H](C)CC)C(=O)N[C@@H](CC(C)C)C(N)=O` (some centres unmarked) [3a], for which the hemolysis at 1 h, 10 µM came out at 49 ± 7%.
